Positions of bridges follow the written chain, without caps; N, C: chain ends. Non-standard residues stand in square brackets, D forms with d. Residues, ends and D or L forms follow the SMILES beside them. No end group written: not given here. *: point of attachment. FITC = O=C1OC2(c3ccc(O)cc3Oc3cc(O)ccc32)c2ccc(NC(=S)*)cc21

Series [1] deals with Lewis lung carcinoma (LLC) tumors. The experiment in a line: Subcutaneous LLC tumor model. Also noted: species or system mice. Conditions: mouse, in vivo. The text has this: C56BL/6 mice and TRAMP prostate cancer models were obtained from Jackson Laboratory. SCID/NOD immune-deficient mice were purchased from Charles River Labs (Wilmington, Mass.). WT-Flk, EC-iDKO, EC-iDKO-Flk and EC-iDKO-Notch mice were generated by crossing conditional double knockout mice (EC-iDKO) with Flk-1^fl/fl or NICD^LSL mice as described in (FIGS. 13A-D) (Pasula et al., 2012; Tessneer et al., 2014). All animal protocols have been approved by the IACUC in Oklahoma Medical Research Foundation. Animal tumor models were established as follows: • (1) Subcutaneous Tumor Models (LLC, melanoma B16 and glioma U87/SCID): LLC, melanoma and glioma tumor models were established as previously described (Pasula et al., 2012). Synthetic peptides were administered at 10 mg/kg intravenously every second day beginning after small tumors were established (20-50 mm^3; approximately 12 days post implantation). Tumor volumes were monitored every other day until euthanized following IACUC tumor scoring system. • (2) TRAMP Prostate Tumor Model (Transgenic Adenocarcinoma of Mouse Prostate). […] Mortality rates were recorded. Prostate tumors were analyzed by weighing genitourinary tract (GU), H&E staining, IHC, IF staining and Western blotting as previously described (Pasula et al., 2012; Tessneer et al., 2013). Lymph nodes, lung, liver, spleen and bones were similarly analyzed for metastasis. • (3) B16 Melanoma Metastasis Model. […] Mice were sacrificed after 5 weeks and tissues (including lung, liver and lymph nodes, etc.) were harvested and analyzed for metastasis by gross morphology, H&E, IHC or IF staining, as well as Western blotting. • (4) Orthotopical Glioma Tumor Models (U87/SCID and GL261/C56BL/6). […] Tumors were monitored by MRI as previously described (Pasula et al., 2012). […] Tumor volume was analyzed by MRI every other day until the mice died or were euthanized following IACUC tumor scoring system. Mortality rates were recorded. […]

For series [2], the system named is atherosclerosis lesion. The experiment in a line: Carotid atherosclerotic mouse model. It is filed as in vivo. The text has this:
(§1) FIGS. 25A-E. Therapeutic potential in atherosclerosis animal models. (FIG. 25A) Targeting lyp-UIM peptide to atheroma by FITC conjugated peptide. (FIG. 25B). […] (FIG. 25C) Quantification for FIG. 25B, red bars represent lesion area by percentile; green bars represent macrophage percentile in different treatment. P values is indicated in the graphs.

The subject of series [3] is atherosclerotic lesion. Nature of the series: ApoE-/- mouse atherosclerosis model. Conditions: in vivo.
Description: as §1

Series [4] is described as follows: Toxicity analysis of UPI peptide, plasma biomarkers. It is filed as in vivo, mice. Conditions: for ALB: wild type mice, i.v. every second day up to 3 months. Also noted: ALB: unit not given here. The method, then:
Age and gender matched wild type mice were intravenously injected with PBS (Control) or different concentration of UPI peptide every second day for up to 3 months. Plasma biochemical parameters were evaluated by the UT-Southwestern Medical Center Core Facility in Dallas, Tex.

Series [5] in a line: Kinetic analysis and FUPI peptide distribution in vivo in LLC or B16 tumor-bearing mice. Here is the method: FIGS. 7A-C. Pharmacokinetics of UPI peptide in ex vivo plasma and tumor vessels. (FIG. 7A) Biotinylated-UPI peptide was incubated in ex vivo plasma at 1 μg/ml concentration. The remaining biotin-labeled UPI peptide was quantified by ELISA as indicated at different time point, n=5; (FIG. 7B) FUPI peptide (10 mg/kg, one injection) was i.v.-injected into mice bearing B16 tumors. A time course was scheduled to sacrifice mice as indicated from 2-48 hrs.
FIG. 8. FUPI peptide specifically homes to tumors. B16 tumor-bearing mice were sacrificed at 24-hr time point after control (PBS) or FUPI peptide injection (10 mg/kg, i.v-injection). Tumor and major organs were stained with CD31 (red) and imaged at red channel (CD31), blue channel (DAPI) and green channel (FUPI). Note that green (FITC) is seen only in tumors. […] Other major organs (liver, lung, heart, spleen, kidney, colon, brain, etc) are free of green color, n=4; scale bar: 200 μm.
LLC or B16 tumor-bearing mice were intravenously injected with 20 mg/kg FUPI peptide then sacrificed at different time points. […] FITC and CD31 fluorescent intensity was quantified using Metamorph software. The number of FUPI and CD31-positive vessels were counted and presented as a percentage of FUPI-positive vessels-to-total CD31-positive vessels.

Series [6] has as its system HUVEC^αvβ3 cells. The experiment in a line: Targeting and localization of FITC-conjugated peptides in cultured HUVEC. In kind it is cell-based, human. Here is the method: FIGS. 6A-E. Targeting and localization of UPI peptides in cultured HUVEC^αvβ3. (FIGS. 6A-C) HUVECs were co-transfected with integrins αv and β3 plasmids by electroporation (Nucleofactor device, Lonza), generating HUVEC^αvβ3 cells. 10 μM FUPI (FITC-conjugated UPI) peptide was added to HUVEC^αvβ3 cells or pcDNA transfected control HUVECs.
To ensure targeting specificity and efficacy of the UPI, the inventors treated HUVEC overexpressing αvβ3 integrin (HUVEC^αvβ3) with FITC-conjugated UPI (FUPI) or AP-UIM (FITC-AP-UIM) (Table 2). Normal quiescent endothelial cells, such as HUVEC, express endogenous αvβ3 integrin. However, compared to tumor endothelial cells this expression is considerably lower. By overexpressing αvβ3 integrin in HUVEC, the inventors distinguished peptide targeting to endothelial cells in quiescent versus tumor vasculature. Overexpression of αvβ3 integrin was monitored by FACS and Western blotting (FIGS. 6A-C). […] Given the selective nature of the UPI peptide in vitro, the inventors next validated its tumor vascular-targeting efficacy in vivo after intravenous (i.v.) administration into Lewis lung carcinoma (LLC) and B16F10 (B16) melanoma subcutaneous tumor-bearing mice. […]

For the compound “SEEDMIEWAKRESEREEEQRMGCIKSKRKCRGDKGPDC [Eps15-UIM]”, the “tumor growth in LLC tumor-bearing mice, variant peptides” value in series [1] is listed as “neither Eps15-UIM nor Hrs-UIM peptides affected tumor growth”.

As for “CGNKRTRGCSGEEELQLQLALAMSKEE [Lyp-UIM peptide]”, in series [2] (mouse, in vivo), the macrophage infiltration entry was “reduced macrophage infiltration”. For the same compound, the atherosclerosis lesion development entry in series [2] (western diet) is “greatly reduced atherosclerosis lesion development”. In series [3], the “atherosclerotic lesion development (arch)” value is reported as “significantly attenuated atherosclerotic lesion development (arch)” and the “atherosclerotic lesion development (root)” value is “significantly attenuated atherosclerotic lesion development (root)”.

For “QEEEELQLALALSQSEAEEKMGCIKSKRKCRGDKGPDC [Hrs-UIM]”, the “tumor growth in LLC tumor-bearing mice, variant peptides” value in series [1] is given as “neither Eps15-UIM nor Hrs-UIM peptides affected tumor growth”.

Turning to `CC[C@@H](C)[C@@H](NC(=O)[C@@H](CS)NC(=O)CNC(=O)[C@@H](CCSC)NC(=O)[C@@H](CCC(=O)O)NC(=O)[C@@H](CCC(=O)O)NC(=O)[C@@H](CCCCN)NC(=O)[C@@H](CO)NC(=O)[C@@H](CCSC)NC(=O)[C@@H](C)NC(=O)[C@@H](CC(C)C)NC(=O)[C@@H](C)NC(=O)[C@@H](CC(C)C)NC(=O)[C@@H](CCC(N)=O)NC(=O)[C@@H](CC(C)C)NC(=O)[C@@H](CCC(N)=O)NC(=O)[C@@H](CC(C)C)NC(=O)[C@@H](CCC(=O)O)NC(=O)[C@@H](CCC(=O)O)NC(=O)[C@@H](CCC(=O)O)NC(=O)CNC(=O)[C@H](N)CO)C(=O)N[C@H](CCCCN)C(=O)N[C@H](CO)C(=O)N[C@H](CCCCN)C(=O)N[C@H](CCCNC(=N)N)C(=O)N[C@H](CCCCN)C(=O)N[C@@H]1CSSC[C@H](C(=O)O)NC(=O)[C@@H](CC(=O)O)NC(=O)[C@H]2CCCN2C(=O)CNC(=O)[C@@H](CCCCN)NC(=O)[C@@H](CC(=O)O)NC(=O)CNC(=O)[C@@H](CCCNC(=N)N)NC1=O` [UPI peptide] (H-[dS]G[dE][dE][dE][dL][dQ][dL][dQ][dL][dA][dL][dA][dM][dS][dK][dE][dE][dM]G[dC][dI][dK][dS][dK][dR][dK][dC][dR]G[dD][dK]G[dP][dD][dC]-OH; disulfide 28-36; N-terminus and C-terminus assumed), in series [4] (10 mg/kg), the ALT amounted to 63.5 ± 10.8 U/L, the AST is given as 62.3 ± 3.6 U/L, the BUN amounted to 18.0 ± 0.8 mg/dL and the CK turned out to be 163.5 ± 50.0 U/L. In series [4] (10 mg/kg), this compound yielded a CREA of 0.173 ± 0.02 mg/dL, a GGT below 5 U/L, an LDH of 397.8 ± 26.0 U/L and a TBIL below 0.01 mg/dL. In series [4] (10 mg/kg), this compound showed an ALB of 1.98 ± 0.1. In series [4] (25 mg/kg), the ALT came out at 65.3 ± 4.0 U/L, the AST came out at 55.0 ± 5.3 U/L, the BUN worked out at 18.7 ± 2.5 mg/dL and the CK is 165.7 ± 8.6 U/L. Further, in series [4] (25 mg/kg), the CREA is recorded as 0.160 ± 0.02 mg/dL, the GGT is listed as below 5 U/L, the LDH was 365.7 ± 77.9 U/L and the TBIL was below 0.01 mg/dL. Besides, the ALB in series [4] (25 mg/kg) worked out at 2.0 ± 0.1. In series [4] (50 mg/kg), the ALT amounted to 71.7 ± 6.0 U/L, the AST is reported as 52.0 ± 4.4 U/L, the BUN is 21.0 ± 2.0 mg/dL and the CK is reported as 153.7 ± 33.9 U/L. In series [4] (50 mg/kg), this compound came in with a CREA of 0.180 ± 0.02 mg/dL, a GGT below 5 U/L, an LDH of 481.5 ± 12.1 U/L and a TBIL below 0.01 mg/dL. In addition, the ALB in series [4] (50 mg/kg) was determined as 2.2 ± 0.2. The “kidney, liver or muscle functions (biomarker analysis, PBS vs UPI peptide-treated mice)” value in series [4] (Table 3) is “no statistical differences in kidney, liver or muscle functions”.

As to “FUPI: FITC-conjugated UPI peptide ({FITC}-[dS]G[dE][dE][dE][dL][dQ][dL][dQ][dL][dA][dL][dA][dM][dS][dK][dE][dE][dM]G[dC][dI][dK][dS][dK][dR][dK][dC][dR]G[dD][dK]G[dP][dD][dC]; disulfide 28-36 (inferred); not fully specified)”, the “retention within vessels of tumors after injection” value in series [5] (B16 melanoma tumors, one i.v. injection) is on record as “up to 48 hours”. Also, the “tissue distribution after intravenous injection” value in series [5] (subcutaneous LLC or B16 melanoma tumors) is “significant concentration within tumor vasculature, but not other major organs”. The “peptide accumulation in HUVEC^αvβ3 versus HUVEC” value in series [6] (FITC-conjugated peptide, 10 μM, 15 hr) is reported as “accumulated selectively in HUVEC^αvβ3, but not in HUVEC alone”. In addition, the “intracellular localization of accumulated peptide” value in series [6] (HUVEC^αvβ3) is given as “highly enriched at the plasma membrane”.

These data come from US11084852B2, “Ubiquitin interacting motif peptides as therapeutics” (OKLAHOMA MEDICAL RESEARCH FOUNDATION, priority 2015, dated 2021).
